Structures are written as SMILES. Structures can show the parent of a compound that is named as a salt.

Assay [1] addresses T1, human S1P1 (EDG-1) (Homo sapiens, UniProt P21453). The assay is described as follows: S1P receptor agonist activity by monitoring intracellular calcium concentration (S1P1). Type of assay: cell-based. To be noted: for EC50: CHO cells overexpressing human S1P1 (EDG-1) gene, intracellular calcium increase, S1P signal = 100% activity. As to the method: (§1) Chinese hamster ovary (CHO) cells in which each of a human S1P1 (EDG-1) gene or a human S1P5 (EDG-8) gene was overexpressed were cultured in Ham's F-12 medium containing 10% FBS (fetal bovine serum), penicillin/streptomycin, and geneticin (0.25 mg/mL). The culture medium was replaced one day before performing a calcium assay and on the day of the assay. Four hours after the culture medium replacement, the culture medium was removed, and washing was performed once with phosphate-buffered saline. After the cells were detached by adding 0.05% trypsin EDTA, the cells were recovered by adding a culture medium. The recovered cell suspension was centrifuged to remove the supernatant, and the cells were suspended in phosphate-buffered saline, and the cell number was counted. The cells were suspended in a Hanks solution containing Calcium 6 Assay Reagent (manufactured by Molecular Devices, LLC), 20 mM HEPES, and 2.5 mM probenecid at a cell density of 1.1×10^6 cells/mL, and the suspension was incubated at 37° C. for about 1 hour. Thereafter, the supernatant was removed by centrifugation, and the cells were suspended in a Hanks solution containing 20 mM HEPES, 2.5 mM probenecid, and 0.1% BSA at a cell density of 2.2×10^6 cells/mL. The suspension was inoculated in a 96-well plate at 80 μL/well. The plate was set on a fluorescent drug screening system (FDSS 6000), and the compound and S1P were sequentially added thereto, and an increase in intracellular calcium concentration between before and after the addition was measured at an excitation wavelength of 480 nm and a fluorescence wavelength of 540 nm. The increase in intracellular calcium concentration was evaluated by the signal intensity at the fluorescence wavelength, and the agonist activity of each compound was calculated by assuming the signal intensity when S1P was added instead of the compound to be 100% activity.

The next assay deals with human S1P5 (EDG-8) (Homo sapiens, UniProt Q9H228). The assay is described as follows: S1P receptor agonist activity by monitoring intracellular calcium concentration (S1P5). Type of assay: cell-based. To be noted: for EC50: CHO cells overexpressing human S1P5 (EDG-8) gene, intracellular calcium increase, S1P signal = 100% activity; for balance of S1P5 receptor agonist activity against S1P1 receptor agonist activity (in words): comparison of calcium assay agonist activities at S1P1 and S1P5. As to the method: as §1

Assay [2] concerns the target T1, human S1P1 (EDG-1). The assay is described as follows: Inhibition of binding of [33P]-S1P to S1P1, CHO membrane fraction. To be noted: membrane fraction of CHO cells overexpressing human S1P1; room temperature 60 minutes; read-out: inhibitory activity (IC50 value) for binding of [33P]-S1P to S1P1. The procedure: (§2) A reaction was carried out in a 96-well microplate by using a membrane fraction of Chinese hamster ovary (CHO) cells each of which was made to overexpress human S1P1 (EDG-1) gene or human S1P5 gene respectively, in an amount of the membrane fraction of 60 μg protein/mL. To each of the well, 100 μL of a vehicle (DMSO) solution or a compound solution at a two-fold concentration each diluted with Binding Buffer (50 mmol/L Tris pH 7.5, 5 mmol/L MgCl2, 0.5% BSA, Complete EDTA free (1 tablet/50 mL)) and 50 μL of 0.16 nmol/L [^33P]-S1P (manufactured by American Radiolabeled Chemicals, Inc.) diluted with Binding Buffer were added, and thereafter, the membrane fraction solution (50 μL) was added thereto, and a reacted was allowed to proceed at room temperature for 60 minutes. After the reaction, suction filtration was carried out by using a 96-well Unifilter, followed by washing with a washing buffer (50 mmol/L Tris pH 7.5, 0.5% BSA) ([…]), and then dried at 50 to 60° C. for 30 to 60 minutes. MicroScint (trade name) 20 (50 μL/well) was added thereto, and the plate was covered with TopSeal-A, and then a radioactivity was measured with TopCount (manufactured by PerkinElmer Co., Ltd.)
(§3) The compound concentration at which 50% of the specific binding of [^33P]-S1P to human S1P1 and human S1P5 was replaced (IC50 value) was used as an evaluation item. […]

The next assay deals with T2, human S1P5 (Homo sapiens, UniProt Q9H228).
T2 construct: expressed in transfected cells; host or cells: membrane fraction of Chinese hamster ovary (CHO) cells
The assay is described as follows: Inhibition of binding of [33P]-S1P to S1P5, CHO membrane fraction. To be noted: membrane fraction of CHO cells overexpressing human S1P5; room temperature 60 minutes; read-out: inhibitory activity (IC50 value) for binding of [33P]-S1P to S1P5. The procedure:
as §2, §3

T1 sequence (P21453 whole entry): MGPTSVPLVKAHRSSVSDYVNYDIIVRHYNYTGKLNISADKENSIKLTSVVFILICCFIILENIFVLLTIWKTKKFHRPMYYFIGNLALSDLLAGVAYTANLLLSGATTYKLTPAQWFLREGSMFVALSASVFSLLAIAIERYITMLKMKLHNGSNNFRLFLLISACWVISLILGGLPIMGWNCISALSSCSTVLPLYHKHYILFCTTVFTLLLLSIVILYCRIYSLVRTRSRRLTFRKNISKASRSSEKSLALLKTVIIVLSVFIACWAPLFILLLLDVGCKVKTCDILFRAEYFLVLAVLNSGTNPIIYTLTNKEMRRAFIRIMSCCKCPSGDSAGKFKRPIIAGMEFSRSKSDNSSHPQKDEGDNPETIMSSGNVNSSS
Chain of human S1P5 (EDG-8) (Q9H228 whole entry): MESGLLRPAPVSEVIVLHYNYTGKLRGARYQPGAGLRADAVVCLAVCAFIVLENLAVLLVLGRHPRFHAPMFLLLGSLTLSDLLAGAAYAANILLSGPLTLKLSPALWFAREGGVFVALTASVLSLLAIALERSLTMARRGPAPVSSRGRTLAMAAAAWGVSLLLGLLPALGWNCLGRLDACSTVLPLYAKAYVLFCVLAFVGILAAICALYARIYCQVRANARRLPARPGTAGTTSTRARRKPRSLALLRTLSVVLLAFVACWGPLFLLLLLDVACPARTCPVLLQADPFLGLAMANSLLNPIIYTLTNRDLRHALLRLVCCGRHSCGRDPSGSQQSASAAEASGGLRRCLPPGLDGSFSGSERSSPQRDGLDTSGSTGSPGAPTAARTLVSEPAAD
T2 sequence (Q9H228 whole entry): as above

For `CCCOCc1ccc2c(c1)C[C@H](C)C(CN1CC(C(=O)O)C1)=C2` [Example 57 (2), 1-{[(3S)-3-methyl-6-(propoxymethyl)-3,4-dihydro-2-naphthalenyl]methyl}-3-azetidinecarboxylic acid], the 50% effective concentration (EC50) on human S1P1 (EDG-1) [1] was more than 30000 nM; at human S1P5 (EDG-8) it was 98 nM.
`C[C@H]1Cc2cc(OC/C=C/C(F)(F)F)ccc2C=C1CN1CC(F)(C(=O)O)C1` [Example 15 (82), 3-fluoro-1-[[(3S)-3-methyl-6-[(E)-4,4,4-trifluorobut-2-enoxy]-3,4-dihydronaphthalen-2-yl]methyl]azetidine-3-carboxylic acid]: the EC50 at human S1P1 (EDG-1) [1] was more than 30000 nM; at human S1P5 (EDG-8), 9 nM.
The corresponding values for `C[C@H]1Cc2cc(OCCCC(F)(F)F)ccc2C=C1CN1CC[C@@H](C(=O)O)C1` [Example 15 (72), (3R)-1-[[(3S)-3-methyl-6-(4,4,4-trifluorobutoxy)-3,4-dihydronaphthalen-2-yl]methyl]pyrrolidine-3-carboxylic acid] are more than 3000 nM and 22 nM.
The corresponding values for `[2H]C([2H])([2H])C([2H])([2H])C([2H])([2H])C([2H])([2H])Oc1ccc2c(c1)C[C@H](C)C(CN1CC(C(=O)O)C1)=C2` [Example 15 (70), 1-[[(3S)-3-methyl-6-(1,1,2,2,3,3,4,4,4-nonadeuteriobutoxy)-3,4-dihydronaphthalen-2-yl]methyl]azetidine-3-carboxylic acid] are more than 3000 nM and 12 nM.
Take `C[C@H]1Cc2cc(OCCC(F)=C(F)F)ccc2C=C1CN1CC(F)(C(=O)O)C1` [Example 15 (52), 3-fluoro-1-[[(3S)-3-methyl-6-(3,4,4-trifluorobut-3-enoxy)-3,4-dihydronaphthalen-2-yl]methyl]azetidine-3-carboxylic acid]: the EC50 on human S1P1 (EDG-1) [1] was more than 3000 nM; on human S1P5 (EDG-8), 15 nM.
The corresponding values for `C[C@H]1Cc2cc(OCCC(F)(F)F)ccc2C=C1CN1CC(F)(C(=O)O)C1` [Example 15 (86), 3-fluoro-1-{[(3S)-3-methyl-6-(3,3,3-trifluoropropoxy)-3,4-dihydro-2-naphthalenyl]methyl}-3-azetidinecarboxylic acid] are more than 30000 nM and 26 nM.
The corresponding values for `CC(N[C@H]1C[C@@H](C(=O)O)C1)C1=Cc2ccc(OCCCC(F)(F)F)cc2C[C@@H]1C` (stereo partly drawn) [Example 47 (2), cis-3-({1-[(3S)-3-methyl-6-(4,4,4-trifluorobutoxy)-3,4-dihydro-2-naphthalenyl]ethyl}amino)cyclobutanecarboxylic acid] are more than 30000 nM and 1100 nM.
For `COc1ccc2c(c1)C[C@H](C)C(CN1CC(F)(C(=O)O)C1)=C2` [Comparative Example, (S)-3-fluoro-1-[(6-methoxy-3-methyl-3,4-dihydronaphthalen-2-yl)methyl]azetidine-3-carboxylic acid, reference compound], the 50% effective concentration (EC50) at human S1P1 (EDG-1) [1] and at human S1P5 (EDG-8) was more than 10000 nM in each case. Moreover, the “S1P1 receptor agonist activity (in words)” value on human S1P1 (EDG-1) [1] (calcium assay, CHO cells overexpressing human S1P1) was “did not have”. Further, the “S1P5 receptor agonist activity (in words)” value at human S1P5 (EDG-8) (calcium assay, CHO cells overexpressing human S1P5) is given as “did not have”.
Take `CCCc1ccc(COc2ccc3c(c2)CCC(CN2CC(C(=O)O)C2)=C3C)c(OC)c1` [Comparative Compound B, 1-({6-[(2-methoxy-4-propylbenzyl)oxy]-1-methyl-3,4-dihydro-2-naphthalenyl}methyl)-3-azetidinecarboxylic acid, reference compound]: the EC50 on human S1P1 (EDG-1) [1] amounted to 0.2 nM. At human S1P5 (EDG-8), the EC50 turned out to be 2 nM and the “balance of S1P5 receptor agonist activity against S1P1 receptor agonist activity (in words)” value is listed as “S1P1 receptor agonist activity was stronger than the S1P5 receptor agonist activity”.
Turning to `CC1=C(CNCCC(=O)O)CCc2cc(OCCCC3CCCCC3)ccc21` [Comparative Compound C, 3-({[6-(3-cyclohexylpropoxy)-1-methyl-3,4-dihydro-2-naphthalenyl]methyl}amino)propanoic acid hydrochloride], the IC50 turned out to be 1 nM on human S1P1 (EDG-1) [2] and 8.5 nM at human S1P5.
Turning to `CCCCCOc1ccc2c(c1)C[C@H](C)C(CN1CC(C(=O)O)C1)=C2` [Example 15, 1-[((3S)-3-methyl-6-pentoxy-3,4-dihydronaphthalen-2-yl)methyl]azetidine-3-carboxylic acid], the half-maximal effective concentration (EC50) on human S1P1 (EDG-1) [1] was more than 3000 nM; at human S1P5 (EDG-8), 3 nM.
Turning to `C[C@H]1Cc2cc(OCCCC(F)(F)F)ccc2C=C1CN1CC(C(=O)O)C1` [Example 15 (34), 1-[[(3S)-3-methyl-6-(4,4,4-trifluorobutoxy)-3,4-dihydronaphthalen-2-yl]methyl]azetidine-3-carboxylic acid], the half-maximal effective concentration (EC50) was more than 3000 nM at human S1P1 (EDG-1) [1] and 20 nM on human S1P5 (EDG-8).
On to `CCCCCCCCOc1ccc2c(c1)CCC(CN1CC(C(=O)O)C1)=C2C.Cl` [Comparative Compound A, 1-{[1-methyl-6-(octyloxy)-3,4-dihydro-2-naphthalenyl]methyl}-3-azetidinecarboxylic acid hydrochloride, reference compound], for which, on human S1P1 (EDG-1) [1], the EC50 was less than 3 nM. On human S1P5 (EDG-8), the EC50 was 3 nM and the “balance of S1P5 receptor agonist activity against S1P1 receptor agonist activity (in words)” value was “S1P1 receptor agonist activity was stronger than the S1P5 receptor agonist activity”.
